Common to all, as to experiment: growth of human tumour cells (NCI), 48 h
Test [1] relates to 786-0 renal.
The subject of test [2] is A549 NSCLC.
Test [3] deals with COLO 205 colon.
For test [4], the system named is HL-60(TB) leukemia.
Test [5] concerns K-562 leukemia.
For test [6], the system named is MOLT-4 leukemia.
Test [7] relates to NCI-H23 lung.
For test [8], the system named is NCI/ADR-RES ovarian.
Test [9] deals with PC-3 prostate.
For test [10], the system named is SK-MEL-5 melanoma.

Values joined by “and” are separate entries in the source; they are usually repeats but may differ in a detail not shown here. Equal values may be shown once.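 Results reflect a 48-hour exposure of cells in 96-well plates to compound at five concentrations. GI50 = concentration required for 50% inhibition of growth. TGI denotes the concentration required for complete inhibition of growth.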

For `COc1cc2c(cc1OC)-c1ccc3cc4c(cc3c1N(CCN(C)C)C2)OCO4`, the GI50 in [1] is 0.442 µM; in test [2] it was 0.694 µM; in test [3], 0.37 µM; in test [4], 0.25 µM; in test [5], 0.262 µM; in [6], 0.158 µM. Further, the GI50 was 0.393 µM in [7], 10.9 µM in test [8], 0.411 µM in [9] and 1.39 µM in [10]. In addition, the TGI in test [1] is 1.99 µM; in test [2] it was 2.13 µM; in [3], 1.92 µM; in [4] it was 0.681 µM; in test [5] it was 1.57 µM; in [6] it was 2.57 µM. In addition, the TGI in test [7] was found to be 2.96 µM; in [8] it was 45.6 µM; in test [9] it was 6.06 µM; in test [10] it was 3.01 µM.

As for `OC(C1CO1)C(O)C1CO1` (configuration not stated), the GI50 is 18.7 µM in test [1]; 16.5 µM and 8.67 µM in test [2]; 124 µM in test [3]; 2.33 µM in test [4]; 62.5 µM in test [5]; 1.95 µM in [6]. For the same compound, the GI50 is 36.4 µM in test [7], 81 µM in [8], 76.1 µM in [9] and 43.9 µM in test [10]. The TGI was 48.5 µM and 139 µM in [1]; 150 µM and 235 µM in test [2]; 127 µM and 285 µM in test [3]; 65.2 µM and 49.5 µM in test [4]; 150 µM in test [5]; 103 µM and 239 µM in test [6]. Besides, the TGI in test [7] is 90 µM and 369 µM; in test [8], 123 µM and 320 µM; in test [9], 150 µM and 220 µM; in test [10], 85.6 µM and 164 µM.

For `CN[C@@H]1C[C@H]2O[C@@](C)([C@@H]1OC)n1c3ccccc3c3c4c(c5c6ccccc6n2c5c31)C(=O)N[C@H]4O`, the TGI is 0.203 µM in test [1]; 3 µM in [2]; 0.267 µM in test [3]; 0.52 µM in test [4]; greater than 6.56 µM in test [5]; greater than 4.75 µM in test [6]. Moreover, the TGI was 0.847 µM in [7], 0.907 µM in [8], 1.14 µM in test [9] and 1.39 µM in test [10]. Further, the GI50 in [2] was 0.0465 µM; in [3] it was 0.0311 µM; in test [5] it was 0.129 µM; in test [6] it was 0.0337 µM; in test [7] it was 0.0285 µM; in test [8] it was 0.167 µM. Further, the GI50 in [9] was 0.0149 µM; in [10] it was 0.102 µM.

Regarding `O=C(O)c1ccc2c3c(ncnc13)-c1ccccc1C2=O`, the GI50 in test [1] was 37 µM; in test [2] it was 2.23 µM; in [3], 3.25 µM; in test [4] it was 27.3 µM; in test [5], 42.1 µM; in [6], greater than 100 µM. The GI50 in test [7] is 0.796 µM; in test [8] it was 42.8 µM; in test [9], 43.3 µM; in test [10], 1.34 µM. Also, the TGI is greater than 100 µM in test [1]; 4.84 µM in [2]; 16.7 µM in test [3]; greater than 100 µM in [4]; greater than 100 µM in test [5]; greater than 100 µM in [6]. The TGI in [7] was 3.05 µM; in test [8] it was greater than 100 µM; in test [9], greater than 100 µM; in test [10], 2.65 µM.

Regarding `CC1(C)N=C(N)N=C(N)N1c1ccc(CCc2ccc(Cl)cc2S(=O)(=O)F)c(Cl)c1`, the GI50 in test [1] was 5.21 µM; in test [2] it was 1.49 µM; in [3] it was 10.4 µM; in test [4], 13 µM; in test [5], 6.81 µM; in [6], 11.5 µM. In addition, the GI50 in test [7] was 6.51 µM; in test [8] it was greater than 100 µM; in test [9], 6.62 µM; in [10], 4.39 µM. The TGI in test [1] is greater than 100 µM; in test [2], greater than 100 µM; in [3], 24 µM; in [4], 48.1 µM; in [5], greater than 100 µM; in [6] it was 73.6 µM. The TGI in test [7] is greater than 100 µM; in [8], greater than 100 µM; in test [9], greater than 100 µM; in [10], 16.3 µM.

On to `COc1ccc2c3c(c4ccccc4cc13)C(=O)N(CCN(C)CCN)C2=O`, for which the GI50 is 0.0388 µM in test [1]; 0.0113 µM in test [2]; 0.0843 µM in test [3]; 0.0272 µM in test [4]; 0.204 µM in test [5]; 0.0902 µM in [7]. Further, the GI50 in test [8] is 0.116 µM; in test [9], 0.338 µM; in [10] it was 0.186 µM. Also, the TGI stood at 0.7 µM in [1]; 0.243 µM in test [2]; 1.27 µM in [3]; 0.361 µM in test [4]; 1.32 µM in [5]; 0.301 µM in test [6]. Further, the TGI in test [7] turned out to be 1.28 µM; in test [8], 1.65 µM; in test [9] it was 1.93 µM; in [10] it was 1.28 µM.

Take `CN1CCC(C(=O)Nc2n[nH]c3nc(-c4ccc(O)cc4)c(Br)cc23)CC1`: the GI50 in test [1] was 3.58 µM and 3.13 µM; in test [2], 5.72 µM and 7.38 µM; in [3], 1 µM and 1.3 µM; in test [4] it was 0.988 µM and 0.333 µM; in test [5] it was 1.04 µM and 0.404 µM; in [6], 1.88 µM and 1.51 µM. The GI50 in test [7] is 4.19 µM and 6.88 µM; in test [8], 24.9 µM and > 25 µM; in test [9], 1.08 µM and 1.64 µM; in [10], 0.599 µM and 1.3 µM. Also, the TGI in test [1] is 21.4 µM and 24.8 µM; in test [2], greater than 25 µM; in test [3] it was 3.7 µM and 3.04 µM; in [4] it was 4 µM and 1.25 µM; in test [5], greater than 25 µM; in test [6], > 25 µM and 18.9 µM. Moreover, the TGI in test [7] was 16.1 µM and > 25 µM; in [8], greater than 25 µM; in [9], greater than 22.2 µM; in [10], 2.3 µM and 4.14 µM.

As to `Nc1nc2ccc3[nH]ncc3c2c2c1CCCC2`, the GI50 was 2.15 µM in test [1]; 2.24 µM in test [2]; 2.09 µM in test [3]; 2.31 µM in test [4]; 3.15 µM in test [5]; 2.81 µM in test [6]. The GI50 in test [7] was 1.41 µM; in test [8], 1.75 µM; in [9], 2.33 µM; in [10] it was 1.54 µM. For the same compound, the TGI in [1] was 9.85 µM; in test [2] it was 13.4 µM; in [3], 10.1 µM; in test [4], 5.72 µM; in [5] it was 15 µM; in [6], 10.8 µM. Also, the TGI in test [7] stood at 3.12 µM; in [8], 5.57 µM; in test [9] it was 10.1 µM; in [10], 4.08 µM.

Consider `COc1ccc2c(c1)c1nc3cc(C)c(C)cc3nc1n2CCN(C)C`, for which the GI50 in test [1] is 1.02 µM; in [2], 0.495 µM; in test [3], 0.42 µM; in test [4], 0.992 µM; in test [5], 0.431 µM; in test [6] it was 0.42 µM. Also, the GI50 in [7] is 1.02 µM; in [8], 0.599 µM; in test [9], 1.04 µM; in test [10], 1.62 µM. The TGI in test [1] was 2.73 µM; in [2], 2.19 µM; in test [3], 1.88 µM; in test [4], 3.36 µM; in test [5], 2.43 µM; in test [6], 4.94 µM. Further, the TGI in test [7] turned out to be 2.88 µM; in test [8], 2.46 µM; in test [9], 2.48 µM; in test [10] it was 3.01 µM.

For the compound `CC(C)[NH-].CC(C)[NH-].O.O.[Cl][Pt+2][Cl]`, the GI50 in test [1] was 33.8 µM; in test [2] it was 33.9 µM; in test [3], 30.1 µM; in test [4] it was 15.3 µM; in test [5] it was 39.1 µM; in [6] it was 10.2 µM. Also, the GI50 is 30.8 µM in test [7], 60.9 µM in test [8], 90.8 µM in test [9] and 21.2 µM in [10]. The TGI in [1] was found to be 126 µM; in [2] it was 213 µM; in [3], 98.7 µM; in test [4], 83.7 µM; in test [5] it was 179 µM; in [6], 132 µM. Further, the TGI in [7] stood at 183 µM; in test [8], 343 µM; in test [9] it was 298 µM; in test [10], 59.9 µM.

With `CCn1c2ccc(C(=O)CCCN(C)C)cc2c2cc(C(=O)CCCN(C)C)ccc21`, the TGI was 2.82 µM in [1]; 3.27 µM in [2]; 6.92 µM in test [3]; 3.78 µM in [4]; 32.3 µM in test [5]; greater than 100 µM in test [6]. Besides, the TGI in test [7] came out at 4.29 µM; in test [8], 21.9 µM; in test [9], 5.88 µM; in [10] it was 17.1 µM.

Turning to `O=C(NCCCCCCNC(=O)n1cc(F)c(=O)[nH]c1=O)NCCCOCCOCCOCCOCCOCCOCCOCCOCCOCCOCCOCCOCCOCCOCCOCCOCCOCCOCCOCCOCCOCCCNC(=O)C(O)C(O)C(OC1OC(CO)C(O)C(O)C1O)C(O)CO` (configuration not stated), the TGI in test [1], in [2], in [3], in test [4], in test [5] and in test [6] was greater than 100 µM each time. For the same compound, the TGI in test [7], in [8], in test [9] and in [10] was greater than 100 µM throughout.

Source of the values: PubChem BioAssay (NCI).
